Test results published in patent US20220089636A1, “TETRAZOLONE SUBSTITUTED STEROIDS AND USE THEREOF” (Beijing Xuanyi PharmaSciences Co., Ltd., priority 2019, published 2022).
Like-named read-outs stand apart in the source and are kept apart here.

Tests used:
α1β2γ2 GABAA receptor = molecular target: T1, α1β2γ2 GABAA receptor (Homo sapiens, UniProt P14867+P47870); experiment: Patch clamp electrophysiology assay of recombinant α1β2γ2 GABAA receptors (potentiation of 2 μM GABA-evoked Cl- current); type: cell-based; conditions: HEK293T cells stably transfected with α1β2γ2 GABAA; for EC50: whole cell, 2 μM GABA, -80 mV
T1 construct: expressed in transfected cells
T1 sequence (P14867 28-456): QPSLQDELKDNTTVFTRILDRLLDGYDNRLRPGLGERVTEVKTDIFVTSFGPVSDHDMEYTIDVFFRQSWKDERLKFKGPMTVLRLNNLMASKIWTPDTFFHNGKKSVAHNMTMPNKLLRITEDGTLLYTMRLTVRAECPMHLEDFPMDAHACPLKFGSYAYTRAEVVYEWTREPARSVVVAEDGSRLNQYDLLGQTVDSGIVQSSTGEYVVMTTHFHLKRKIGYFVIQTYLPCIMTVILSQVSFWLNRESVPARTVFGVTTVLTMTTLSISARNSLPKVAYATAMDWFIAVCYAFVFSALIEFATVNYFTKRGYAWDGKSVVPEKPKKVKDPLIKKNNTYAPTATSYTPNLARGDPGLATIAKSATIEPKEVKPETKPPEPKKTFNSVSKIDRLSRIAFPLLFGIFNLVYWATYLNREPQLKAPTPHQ
T1 sequence (P47870 25-512 limits assumed): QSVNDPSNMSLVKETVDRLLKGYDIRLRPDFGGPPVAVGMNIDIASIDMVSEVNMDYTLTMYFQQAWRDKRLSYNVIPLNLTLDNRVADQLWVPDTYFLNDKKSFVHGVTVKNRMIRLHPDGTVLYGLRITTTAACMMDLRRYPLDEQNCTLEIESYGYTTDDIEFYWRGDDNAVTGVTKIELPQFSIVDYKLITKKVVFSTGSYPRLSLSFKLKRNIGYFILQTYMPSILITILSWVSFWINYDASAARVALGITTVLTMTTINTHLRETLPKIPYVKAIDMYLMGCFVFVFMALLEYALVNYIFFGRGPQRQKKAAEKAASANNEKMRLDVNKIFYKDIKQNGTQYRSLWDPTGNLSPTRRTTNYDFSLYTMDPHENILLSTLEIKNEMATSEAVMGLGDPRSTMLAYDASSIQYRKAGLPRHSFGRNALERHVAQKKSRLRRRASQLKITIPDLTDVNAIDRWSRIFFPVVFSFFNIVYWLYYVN
T1 sequence (P18507 40-475 partner): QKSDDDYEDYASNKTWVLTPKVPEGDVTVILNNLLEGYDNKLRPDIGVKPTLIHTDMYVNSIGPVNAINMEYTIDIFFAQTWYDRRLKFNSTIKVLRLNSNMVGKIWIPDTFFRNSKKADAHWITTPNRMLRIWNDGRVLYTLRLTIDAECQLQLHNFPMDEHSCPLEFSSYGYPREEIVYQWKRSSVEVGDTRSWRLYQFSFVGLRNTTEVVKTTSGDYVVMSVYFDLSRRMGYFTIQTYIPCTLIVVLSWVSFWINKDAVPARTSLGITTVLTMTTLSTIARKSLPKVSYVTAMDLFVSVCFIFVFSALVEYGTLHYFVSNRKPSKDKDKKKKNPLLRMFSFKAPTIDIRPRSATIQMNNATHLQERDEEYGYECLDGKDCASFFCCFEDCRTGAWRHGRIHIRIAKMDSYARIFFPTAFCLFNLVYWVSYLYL
Protocol: Cellular electrophysiology is used to measure the pharmacological properties of GABAA receptor modulators in heterologous cell systems. Each compound is tested for its ability to affect GABA mediated currents at a submaximal agonist dose (GABA EC20=2 μM). HEK293T cells are stably transfected with the α1β2γ2 subunits of the GABAA receptor. Flasks or dishes of HEK293 GABAA cells were maintained in the medium (DMEM, 11% (v/v) heat inactivated FBS, 100 or 200 μg/ml G418, 40 μg/ml Hygromycin B, 80 μg/ml Zeocin) and incubated at 37° C. in a humidified incubator with 5% CO2. 12 to 24 hours prior to electrophysiological recordings, the cells were plated on glass cover slips placed in culture dishes and maintained under the same incubation and media conditions. The number of cells being plated on the cover slip should reach a confluence rate at which majority of the cells are single.
For the electrophysiological recordings in the study the following external and internal solutions were used (Table 1):
HEKA EPC 10 USB patch clamp amplifier (from HEKA Elektronik, Germany) was used in the whole cell recording. A cover slip with plenty of single HEK293T-GABAA cells on the surface was removed and placed into a continuously perfused (approximately 1-2 ml/minute) recording chamber mounted on an inverted microscope. GABAA Cl^− current was recorded from single cell using standard whole cell recording techniques. 2 μM GABA was used to evoke GABAA Cl^− current (2 μM of GABA was the EC10-EC20 value of agonist GABA obtained internally on the stable GABAA cells used in this study). After achieving break-in (whole-cell) configuration, the cell was voltage clamped at a holding potential of −80 mV. Only stable cells meeting the recording parameters (membrane resistance Rm>500 MΩ, access resistance (Ra)<15 MΩ, leak current<100 pA in 90% of the recording time) were used. 2 μM GABA was applied to the cell to induce stable Cl^− current first as control for about 2 seconds, test compounds (i.e., compounds of formula (AI), (I), (AII), and (II), or any subgenera thereof) were followed to be applied to the cells for 3 min, then 2 μM GABA was applied to observe the potentiation effect on the GABAA Cl^− current. Different doses of test compound from low to high were applied to the same cell when the cell was stable. A cell was considered stable when current size evoked by 2 μM GABA applied to the cell from time to time was similar. To minimize the possible desensitation of GABAA Cl^− current, duration between applications of test articles was set to 180 seconds.
Test compounds were dissolved in DMSO to form stock solutions (10 mM). Test compounds were diluted to 0.003, 0.01, 0.03, 0.1, 0.3, 1, 3 and 10 μM in bath solution. AU concentrations of test articles were tested on each cell. Data were analyzed using software provided by HEKA, Microsoft Excel and Graphpad Prism (Table 2).

[1] = Mouse PK study (i.v. and p.o.); type: in vivo; conditions: plasma, male CD1 mice; for half-life: read-out: T1/2 (hr) i.v. (converted); for Vd: read-out: Vss; for bioavailability: 5 mg/kg p.o. vs 1 mg/kg i.v.
Protocol: Test compounds were dosed to male CD1 mice at 5 mg/kg by oral gavage (p.o.) or 1 mg/kg by intravenous injection (i.v.). Blood samples were taken at 0.083, 0.25, 0.5, 1.0, 3.0, 6.0 and 24 hours post i.v. dosing and at 0.25, 0.5, 1.0, 3.0, 6.0 and 24 hours post p.o. dosing. The plasma concentration of compounds were determined by HPLC.

PTZ-treated mice = experiment: Acute PTZ (pentylenetetrazol-induced seizure) assay; type: in vivo, Male CD-1 mice; conditions: 3 mg/kg oral gavage 60 min prior to PTZ 120 mg/kg s.c.; observed 30 min
Protocol: The anticonvulsant effect of test compounds were assessed in the pentylenetetazol-induced seizure assay in mice similar to methods described in Giardina & Gasior (2009) Curr Protoc Pharmacol., Chapter 5. Male CD-1 mice were housed in groups of five under controlled conditions (temperature of 22±2° C. and 12:12 light-dark cycle, lights on at 8:00 am) and water and food were available ad libitum. The mice were housed for 1 week prior to behavioral testing, at which time they weighed 25-35 g. Pentylenetetrazol (PTZ, Sigma) was dissolved in sterile 0.9% saline at a concentration of 12 mg/mL concentration for subcutaneous administration. Test compounds were formulated and administered via oral gavage at 60 minutes prior to PTZ injection. AU solutions were made fresh and were given in a volume of 10 ml/kg body weight.
Mice were acclimated to the test room for at least 30 min before compound administration. Mice were randomized into at least four test groups (vehicle and at least three doses of the test compound) with 10 mice per group. […] Following the drug pretreatment time, the mice were injected s.c. with PTZ (120 mg/kg). Immediately following the PTZ injection, mice were individually placed into observation chambers (25×15×15 cm) and a three-channel timer was started. Each mouse was continuously observed for 30 min and the following behaviors were recorded by observers blinded to the treatments: 1) latency to clonic convulsions that persist for 3 sec and followed by an absence of righting reflex 2) latency to tonic convulsions, characterized by the rigid extension of all four limbs that exceeded a 90 degree angle with the body 3) latency to death 4) number of clonic and tonic convulsions. Data are presented as mean±S.E.M and one-way analysis of variance with Dunnetfs or Bonferroni's post-hoc test was used to detect significant differences in latency and number between the vehicle and dose group, p values<0.05 were regarded as statistically significant.

[2] = iv, 1 mg/kg i.v., read-out: AUClast (hr*ng/mL) i.v.
[3] = po, 5 mg/kg p.o., read-out: AUClast (hr*ng/mL) p.o.

Compound	EC50 (α1β2γ2 GABAA receptor) [µM]	clearance ([1]; iv, 1 mg/kg i.v.) [L/h/kg]	AUC(0-t) [1, 2] [ng·h/mL]	half-life ([1]; iv, 1 mg/kg i.v.) [h]	Vd ([1]; iv, 1 mg/kg i.v.) [L/kg]	Cmax ([1]; po, 5 mg/kg p.o.) [µg/mL]	Tmax ([1]; po, 5 mg/kg p.o.) [h]	bioavailability ([1]; po) [%]	AUC(0-t) [1, 3] [ng·h/mL]	Clonic Seizure Latency (sec) (Mean) (PTZ-treated mice)	Clonic Seizure Number (Mean) (PTZ-treated mice)	Mortality (%) (PTZ-treated mice)	Onset of death (sec) (Mean) (PTZ-treated mice)	Tonic Seizure Latency (sec) (Mean) (PTZ-treated mice)	Tonic Seizure Number (Mean) (PTZ-treated mice)	Emax (α1β2γ2 GABAA receptor; HEK-293T, potentiation of 2 μM GABA current) [%]
Cn1nccc1-n1nnn(CC(=O)[C@H]2CC[C@H]3[C@@H]4CC[C@@H]5C[C@](C)(O)CC[C@@H]5[C@H]4CC[C@]23C)c1=O [Example 26, 1-(2-((3R,5R,8R,9R,10S,13S,14S,17S)-3-hydroxy-3,13-dimethylhexadecahydro-1H-cyclopenta[a]phenanthren-17-yl)-2-oxoethyl)-4-(1-methyl-1H-pyrazol-5-yl)-1,4-dihydro-5H-tetrazol-5-one]	0.064	0.94	1010	1.39	1.75	0.827	1	77.1	3910	1547.8 ± 139.2 s	0.3 ± 0.2	0.0	1800 + 0.0 sec	1800 + 0.0 sec	0.0 + 0.0	–
C[C@@]1(O)CC[C@H]2[C@H](CC[C@@H]3[C@@H]2CC[C@]2(C)[C@@H](C(=O)Cn4nnn(-c5ccccc5)c4=O)CC[C@@H]32)C1 [Example 10, 1-(2-((3R,5R,8R,9R,10S,13S,14S,17S)-3-hydroxy-3,13-dimethylhexadecahydro-1H-cyclopenta[a]phenanthren-17-yl)-2-oxoethyl)-4-phenyl-1,4-dihydro-5H-tetrazol-5-one]	0.027	0.54	1840	4.22	2.16	0.491	3	60.5	5510	1485 + 210.2 sec	0.3 ± 0.2	0.0	1800 + 0.0 sec	1800 + 0.0 sec	0.0 + 0.0	–
C[C@@]1(O)CC[C@H]2[C@H](CC[C@@H]3[C@@H]2CC[C@]2(C)[C@@H](C(=O)Cn4nnn(-c5ccc(C#N)cc5)c4=O)CC[C@@H]32)C1 [Example 13, 4-(4-(2-((3R,5R,8R,9R,10S,13S,14S,17S)-3-hydroxy-3,13-dimethylhexadecahydro-1H-cyclopenta[a]phenanthren-17-yl)-2-oxoethyl)-5-oxo-4,5-dihydro-1H-tetrazol-1-yl)benzonitrile]	0.013	0.34	2640	8.03	2.94	0.479	1	41.5	5760	1012 + 263.6 sec	0.7 ± 0.3	0.0	1800 + 0.0 sec	1800 + 0.0 sec	0.0 + 0.0	–
C[C@@]1(O)CC[C@H]2[C@H](CC[C@@H]3[C@@H]2CC[C@]2(C)[C@@H](C(=O)Cn4nnn(-c5ccncc5)c4=O)CC[C@@H]32)C1 [Example 17, 1-(2-((3R,5R,8R,9R,10S,13S,14S,17S)-3-hydroxy-3,13-dimethylhexadecahydro-1H-cyclopenta[a]phenanthren-17-yl)-2-oxoethyl)-4-(pyridin-4-yl)-1,4-dihydro-5H-tetrazol-5-one]	0.038	2.61	381	0.84	2.12	0.227	3	101	1930	1441 + 184.6 sec	0.3 ± 0.2	0.0	1800 + 0.0 sec	1800 + 0.0 sec	0.0 + 0.0	–
Cn1nnn(CC(=O)[C@H]2CC[C@H]3[C@@H]4CC[C@@H]5C[C@](C)(O)CC[C@@H]5[C@H]4CC[C@]23C)c1=O [Example 2, 1-(2-((3R,5R,8R,9R,10S,13S,14S,17S)-3-hydroxy-3,13-dimethylhexadecahydro-1H-cyclopenta[a]phenanthren-17-yl)-2-oxoethyl)-4-methyl-1,4-dihydro-5H-tetrazol-5-one]	0.11	0.64	1480	1.46	1.16	1.38	1	66.3	4900	1085.4 ± 184.6 s	0.7 ± 0.2	0.0	1800 + 0.0 sec	1800 + 0.0 sec	0.0 + 0.0	–
C[C@@]1(O)CC[C@H]2[C@H](CC[C@@H]3[C@@H]2CC[C@]2(C)[C@@H](C(=O)Cn4nnn(-c5ccc(F)cc5)c4=O)CC[C@@H]32)C1 [Example 11, 1-(4-fluorophenyl)-4-(2-((3R,5R,8R,9R,10S,13S,14S,17S)-3-hydroxy-3,13-dimethylhexadecahydro-1H-cyclopenta[a]phenanthren-17-yl)-2-oxoethyl)-1,4-dihydro-5H-tetrazol-5-one]	0.044	0.81	1230	3.9	2.42	0.274	1	52.3	3200	717.4 ± 238.5 s	0.8 ± 0.2	0.0	1800 + 0.0 sec	1800 + 0.0 sec	0.0 + 0.0	795
